How the values were obtained:
Type in all cases: in vivo
[1] = system: redroot pigweed (Amaranthus retroflexus, AMARE); assay: Pre-emerge test, greenhouse herbicide activity screening; conditions: phytotoxicity rating 0-100, 14 days after application
Outline: (§1)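 Sandy loam pots; pre-emerge: sown 1 d pre-spray, surface-watered after, then bottom-watered. Post-emerge: sown 8–21 d before, 2–3 leaf stage, + 0.25% v/v NIS, bottom-watered. Acetone, 187 l/ha track spray, 15–1000 g ai/ha. 0–100 injury score, day 14.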

[2] = system: barnyardgrass (Echinochloa crus-galli, ECHCG); assay: as above; conditions: phytotoxicity rating 0-100, 14 days after application
From the text: (§2) A standard greenhouse herbicide activity screening system was used to evaluate the herbicidal efficacy and crop safety of these test compounds. Seven broadleaf weed species including redroot pigweed (Amaranthus retroflexus, AMARE, velvetleaf (Abutilon theophrasti, ABUTH), sicklepod (Cassia obtusifolia, CASOB), ivyleaf morningglory (Ipomoea hederacea, IPOHE), lambsquarters (Chenopodium album, CHEAL), common ragweed (Ambrosia artemisizfolia L., AMBEL), and cocklebur (Xanthium strumarium, XANST) were used as test species. Four grass weed species including green foxtail (Setaria viridis, SETVI), barnyardgrass (Echinochloa crus-galli, ECHCG), johnsongrass (Sorghum halepense, SORHA), and large crabgrass (Digitaria sanguinalis, DIGSA) were also used. In addition, three crop species, field corn (Zea mays L., var. Dekalb 535, CORN), soybean (Glycine max L., var. Pella 86, SOY), and is upland rice (Oryza sp., var. Tebonnet, RICE) were included.
(§3) All plants were grown in 10 cm square plastic pots which were filled with a sandy loam soil mix. For pre-emerge tests, seeds were planted one day prior to application of the test compounds. For post-emerge tests, seeds were planted 8-21 days prior to the test to allow emergence and good foliage development prior to application of the test substances. At the time of the post-emerge application, plants of all species were usually at the 2-3 leaf stage of development.
(§4) All test compounds Were dissolved in acetone and applied to the test units in a volume of 187 l /ha. Test materials were applied at rates ranging from 15 g ai/ha to 1000 g ai/ha using a track sprayer equipped with a TJ8001E even flow flat fan spray nozzle. Plants were arranged on a shelf so that the top of the canopy (post-emerge) or top of the soil surface (pre-emerge) was 40-45 cm below the nozzle. Pressurized air was used to force the test solution through the nozzle as it was mechanically advanced (via electrically driven chain drive) over the top of all test plants/pots. This application simulates a typical commercial field herbicide application.
(§5) In the post-emerge test, a commercial non-ionic surfactant was also included (0.25% v/v) to enhance wetting of the leaf surfaces of target plants. Immediately after application, test units of the pre-emerge applications were watered at the soil surface to incorporate the test materials. Subsequently, these test units were bottom-watered. Post-emerge test units were always bottom-watered.
(§6) At 14 days after application of the test materials, phytotoxicity ratings were recorded. A rating scale of 0-100 was used as previously described in Research Methods in Weed Science, 2nd edition, B. Truelove, Ed., Southern Weed Science Society, Auburn University, Auburn, Ala. 1977. Briefly, “0” corresponds to no damage and “100” corresponds to complete death of all plants in the test unit. This scale was used both to determine efficacy against weed species and damage to crop species. Herbicide activity data for various compounds of this invention, which are shown by compound No. in Tables 1-8, are shown in Tables 11 and 12.

[3] = system: green foxtail (Setaria viridis, SETVI); assay: as above; conditions: phytotoxicity rating 0-100, 14 days after application
From the text: as §2, §3, §4, §5, §6

[4] = system: ivyleaf morningglory (Ipomoea hederacea, IPOHE); assay: as above; conditions: phytotoxicity rating 0-100, 14 days after application
From the text: as §2, §3, §4, §5, §6

[5] = system: lambsquarters (Chenopodium album, CHEAL); assay: as above; conditions: phytotoxicity rating 0-100, 14 days after application
From the text: as §2, §3, §4, §5, §6

[6] = system: large crabgrass (Digitaria sanguinalis, DIGSA); assay: as above; conditions: phytotoxicity rating 0-100, 14 days after application
From the text: as §2, §3, §4, §5, §6

[7] = system: sicklepod (Cassia obtusifolia, CASOB); assay: as above; conditions: phytotoxicity rating 0-100, 14 days after application
From the text: as §2, §3, §4, §5, §6

[8] = system: velvetleaf (Abutilon theophrasti, ABUTH); assay: as above; conditions: phytotoxicity rating 0-100, 14 days after application
From the text: as §2, §3, §4, §5, §6

[9] = system: field corn (Zea mays L., var. Dekalb 535, CORN); assay: Pre-emerge test, crop safety; conditions: crop damage rating 0-100, 14 days after application
Outline: as §1

[10] = system: upland rice (Oryza sp., var. Tebonnet, RICE); assay: Pre-emerge test, crop safety; conditions: crop damage rating 0-100, 14 days after application
Outline: as §1

[11] = system: barnyardgrass (Echinochloa crus-galli, ECHCG); assay: Post-emerge test, greenhouse herbicide activity screening; conditions: post-emerge, 14 days after application, rating scale 0-100
From the text: as §2, §3, §4, §5, §6

[12] = system: green foxtail (Setaria viridis, SETVI); assay: as above; conditions: post-emerge, 14 days after application, rating scale 0-100
From the text: as §2, §3, §4, §5, §6

[13] = system: ivyleaf morningglory (Ipomoea hederacea, IPOHE); assay: as above; conditions: post-emerge, 14 days after application, rating scale 0-100
From the text: as §2, §3, §4, §5, §6

[14] = system: lambsquarters (Chenopodium album, CHEAL); assay: as above; conditions: post-emerge, 14 days after application, rating scale 0-100
From the text: as §2, §3, §4, §5, §6

[15] = system: large crabgrass (Digitaria sanguinalis, DIGSA); assay: as above; conditions: post-emerge, 14 days after application, rating scale 0-100
From the text: as §2, §3, §4, §5, §6

[16] = system: redroot pigweed (Amaranthus retroflexus, AMARE); assay: as above; conditions: post-emerge, 14 days after application
From the text: as §2, §3, §4, §5, §6

[17] = system: sicklepod (Cassia obtusifolia, CASOB); assay: as above; conditions: post-emerge, 14 days after application, rating scale 0-100
From the text: as §2, §3, §4, §5, §6

[18] = system: velvetleaf (Abutilon theophrasti, ABUTH); assay: as above; conditions: post-emerge, 14 days after application, rating scale 0-100
From the text: as §2, §3, §4, §5, §6

[19] = system: field corn (Zea mays L., var. Dekalb 535, CORN); assay: Post-emerge test, crop safety; conditions: post-emerge, 14 days after application, rating scale 0-100
Outline: (§7)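 Herbicidal damage is scored 0 (none) to 100 (complete plant death) two weeks after a simulated field spray. Rates span 15–1000 g ai/ha, delivered in acetone at 187 l/ha. For post-emergence treatments, plants have 2–3 leaves and the spray carries 0.25% v/v non-ionic surfactant.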

[20] = system: upland rice (Oryza sp., var. Tebonnet, RICE); assay: Post-emerge test, crop safety; conditions: post-emerge, 14 days after application, rating scale 0-100
Outline: as §7

[21] = 63 g ai/ha, rating scale 0-100 (0 no damage, 100 complete death)
[22] = 250 g ai/ha, rating scale 0-100

Row | SMILES | Pre-emerge Herbicidal Activity AMARE ([1]; 63 g ai/ha) | Pre-emerge Herbicidal Activity AMARE ([1]; 250 g ai/ha) | Pre-emerge Herbicidal Activity ECHCG ([2]; 63 g ai/ha) | Pre-emerge Herbicidal Activity ECHCG ([2]; 250 g ai/ha) | Pre-emerge Herbicidal Activity SETVI ([3]; 63 g ai/ha) | Pre-emerge Herbicidal Activity SETVI ([3]; 250 g ai/ha) | Pre-emerge Herbicidal Activity IPOHE ([4]; 63 g ai/ha) | Pre-emerge Herbicidal Activity IPOHE ([4]; 250 g ai/ha) | Pre-emerge Herbicidal Activity CHEAL ([5]; 63 g ai/ha) | Pre-emerge Herbicidal Activity CHEAL ([5]; 250 g ai/ha) | Pre-emerge Herbicidal Activity DIGSA ([6]; 63 g ai/ha) | Pre-emerge Herbicidal Activity DIGSA ([6]; 250 g ai/ha) | Pre-emerge Herbicidal Activity CASOB ([7]; 63 g ai/ha) | Pre-emerge Herbicidal Activity CASOB ([7]; 250 g ai/ha) | Pre-emerge Herbicidal Activity ABUTH ([8]; 63 g ai/ha) | Pre-emerge Herbicidal Activity ABUTH ([8]; 250 g ai/ha) | Pre-emerge Herbicidal Activity CORN ([9]; 63 g ai/ha) | Pre-emerge Herbicidal Activity CORN ([9]; 250 g ai/ha) | Pre-emerge Herbicidal Activity RICE ([10]; 63 g ai/ha) | Pre-emerge Herbicidal Activity RICE ([10]; 250 g ai/ha) | also measured
1 | COc1c(Cl)cc(F)c(-n2c(=O)cc(C(F)(F)F)n(C)c2=O)c1NC(=O)OCc1cccc(F)c1 [4-44] | 100 | 100 | 80 | 95 | 100 | 100 | 100 | 100 | 100 | 100 | 100 | 100 | 100 | 100 | 100 | 100 | 70 | 95 | 70 | 65 | phytotoxicity rating ECHCG ([11]; 63 g ai/ha): 70; phytotoxicity rating ECHCG ([11]; 250 g ai/ha): 90; phytotoxicity rating SETVI ([12]; 63 g ai/ha): 95; phytotoxicity rating SETVI ([12]; 250 g ai/ha): 90; phytotoxicity rating IPOHE ([13]; 63 g ai/ha): 100; phytotoxicity rating IPOHE ([13]; 250 g ai/ha): 100; phytotoxicity rating CHEAL ([14]; 63 g ai/ha): 100; phytotoxicity rating CHEAL ([14]; 250 g ai/ha): 100; phytotoxicity rating DIGSA ([15]; 63 g ai/ha): 70; phytotoxicity rating DIGSA ([15]; 250 g ai/ha): 95; phytotoxicity rating AMARE [16, 21]: 100; phytotoxicity rating AMARE [16, 22]: 100; phytotoxicity rating CASOB ([17]; 63 g ai/ha): 100; phytotoxicity rating CASOB ([17]; 250 g ai/ha): 100; phytotoxicity rating ABUTH ([18]; 63 g ai/ha): 100; phytotoxicity rating ABUTH ([18]; 250 g ai/ha): 100; phytotoxicity rating CORN (crop damage) ([19]; 63 g ai/ha): 90; phytotoxicity rating CORN (crop damage) ([19]; 250 g ai/ha): 100; phytotoxicity rating RICE (crop damage) ([20]; 63 g ai/ha): 70; phytotoxicity rating RICE (crop damage) ([20]; 250 g ai/ha): 80
2 | COc1c(Cl)cc(F)c(-n2c(=O)cc(C(F)(F)F)n(C)c2=O)c1NC(=O)OCc1ccc(OC(F)(F)F)cc1 [4-45] | 30 | 100 | 0 | 40 | 0 | 50 | 10 | 40 | 50 | 95 | 0 | 70 | 0 | 40 | 50 | 90 | 0 | 20 | 0 | 10 | phytotoxicity rating ECHCG ([11]; 63 g ai/ha): 20; phytotoxicity rating ECHCG ([11]; 250 g ai/ha): 20; phytotoxicity rating SETVI ([12]; 63 g ai/ha): 30; phytotoxicity rating SETVI ([12]; 250 g ai/ha): 60; phytotoxicity rating IPOHE ([13]; 63 g ai/ha): 95; phytotoxicity rating IPOHE ([13]; 250 g ai/ha): 100; phytotoxicity rating CHEAL ([14]; 63 g ai/ha): 100; phytotoxicity rating CHEAL ([14]; 250 g ai/ha): 100; phytotoxicity rating DIGSA ([15]; 63 g ai/ha): 10; phytotoxicity rating DIGSA ([15]; 250 g ai/ha): 20; phytotoxicity rating AMARE [16, 21]: 90; phytotoxicity rating AMARE [16, 22]: 95; phytotoxicity rating CASOB ([17]; 63 g ai/ha): 80; phytotoxicity rating CASOB ([17]; 250 g ai/ha): 80; phytotoxicity rating ABUTH ([18]; 63 g ai/ha): 100; phytotoxicity rating ABUTH ([18]; 250 g ai/ha): 100; phytotoxicity rating CORN (crop damage) ([19]; 63 g ai/ha): 10; phytotoxicity rating CORN (crop damage) ([19]; 250 g ai/ha): 20; phytotoxicity rating RICE (crop damage) ([20]; 63 g ai/ha): 10; phytotoxicity rating RICE (crop damage) ([20]; 250 g ai/ha): 20

— patent US6355799B1, “Substituted benzene compounds, process for their preparation, and herbicidal and defoliant compositions containing them” (ISK Americas Incorporated, priority 1997, dated 2002)
